Laboratory results: ChEMBL document CHEMBL6096740, “Discovery and Optimization of a Series of Novel Morpholine-Containing USP1 Inhibitors” (J Med Chem, 2025)

Tests used:
[1] = Metabolic stability in mouse liver microsome assessed as half life preincubated for 5 mins followed by NADPH addition and measured after 120 mins by LC-MS/MS analysis; format: ADME; conditions: liver microsomes, time 125 min
[2] = Metabolic stability in mouse liver microsome assessed as intrinsic clearance preincubated for 5 mins followed by NADPH addition and measured after 120 mins by LC-MS/MS analysis; format: ADME; conditions: liver microsomes, time 125 min, read-out: CLH
[3] = Metabolic stability in rat liver microsome assessed as half life preincubated for 5 mins followed by NADPH addition and measured after 120 mins by LC-MS/MS analysis; format: ADME; conditions: liver microsomes, time 125 min
[4] = Metabolic stability in rat liver microsome assessed as intrinsic clearance preincubated for 5 mins followed by NADPH addition and measured after 120 mins by LC-MS/MS analysis; format: ADME; conditions: liver microsomes, time 125 min, read-out: CLH
[5] = Metabolic stability in dog liver microsome assessed as half life preincubated for 5 mins followed by NADPH addition and measured after 120 mins by LC-MS/MS analysis; format: ADME, Canis lupus familiaris; conditions: liver microsomes, time 125 min
[6] = Metabolic stability in dog liver microsome assessed as intrinsic clearance preincubated for 5 mins followed by NADPH addition and measured after 120 mins by LC-MS/MS analysis; format: ADME, Canis lupus familiaris; conditions: liver microsomes, time 125 min, read-out: CLH
[7] = Metabolic stability in monkey liver microsome assessed as half life preincubated for 5 mins followed by NADPH addition and measured after 120 mins by LC-MS/MS analysis; format: ADME, Macaca mulatta; conditions: rhesus monkey, liver microsomes; time 125 min
[8] = Metabolic stability in monkey liver microsome assessed as intrinsic clearance preincubated for 5 mins followed by NADPH addition and measured after 120 mins by LC-MS/MS analysis; format: ADME, Macaca mulatta; conditions: rhesus monkey, liver microsomes; time 125 min; read-out: CLH
[9] = Metabolic stability in human liver microsome assessed as half life preincubated for 5 mins followed by NADPH addition and measured after 120 mins by LC-MS/MS analysis; format: ADME; conditions: liver microsomes, time 125 min
[10] = Metabolic stability in human liver microsome assessed as intrinsic clearance preincubated for 5 mins followed by NADPH addition and measured after 120 mins by LC-MS/MS analysis; format: ADME; conditions: liver microsomes, time 125 min, read-out: CLH
[11] = Half life in ICR mouse at 10 mg/kg, po measured up to 24 hrs; format: ADME, organism-based; conditions: in vivo
[12] = Tmax in ICR mouse at 10 mg/kg, po measured up to 24 hrs; format: ADME, organism-based; conditions: in vivo
[13] = Cmax in ICR mouse at 10 mg/kg, po measured up to 24 hrs; format: ADME, organism-based; conditions: in vivo
[14] = AUC (0 to t) in ICR mouse at 10 mg/kg, po measured up to 24 hrs; format: ADME, organism-based; conditions: in vivo
[15] = AUC (0 to infinity) in ICR mouse at 10 mg/kg, po measured up to 24 hrs; format: ADME, organism-based; conditions: in vivo

half-life [1]: 1 h | CLint scaled [2]: 90.8 mL/min/kg | half-life [3]: > 2 h | CLint scaled [4]: < 20.7 mL/min/kg | half-life [5]: 1.92 h | CLint scaled [6]: 30 mL/min/kg | half-life [7]: 0.997 h | CLint scaled [8]: 33.9 mL/min/kg | half-life [9]: 1.43 h | CLint scaled [10]: 20.3 mL/min/kg | half-life [11]: 1.92 h | Tmax [12]: 0.25 h | Cmax [13]: 3510 ng/mL | AUC(0-t) at 24 h [14]: 13300 ng·h/mL | AUC(0-inf) [15]: 14200 ng·h/mL
Structure (SMILES): COc1ncnc(C2CC2)c1-c1nc(N2CCOC[C@H]2c2ccc(-c3nc(C(F)(F)F)cn3C(C)C)cc2)c2occc2n1
